One experiment has as its target T1, SF3b complexes (Homo sapiens, UniProt O75533+Q7RTV0).
T1 construct: endogenous in cells; host or cells: Nuclear extracts; A HeLa S3 extract preparation is described for the in vitro splicing assay
In words: Scintillation proximity assay (SPA) with [3H]-labelled pladienolide probe. The class given is binding. As to conditions: SF3B1 (WT); geometric mean; read-out: SPA-ATS GMean IC50 (nM) SF3B1 (WT). The essentials: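 SF3b complexes captured from nuclear extracts on anti-SF3B1 antibody SPA beads; test compounds pre-incubated 30 min before 2.5 nM [3H]-pladienolide probe added, then 30 min incubation. Bound probe read by scintillation; values from non-linear regression of concentration–response curves.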
Background: In a scintillation proximity assay essentially only radioactivity close to the scintillant gives light.

The subject of experiment [1] is Panc 05.04 cells (SF3b K700E mutant). Briefly: Cell proliferation and viability, CellTiter-Glo, 72 hours. The class given is cell-based. As to conditions: PANC0504.1; for CTGlo-ATS Mean MinResponse % 72 h PANC0504.1: -100% = cidal, 0% = static, 100% = uninhibited growth; for GI50: geometric mean. In short, it runs like this:
(§1)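 RPMI-1640/10% FBS (Panc: + insulin, FBS 15%); 11-pt half-log dose, ~10 μM-100 pM, 0.1% DMSO; 37° C, 5% CO2; ATP luminescence read; % inhibition vs T0 and vehicle, −100% cidal to 100% uninhibited growth.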

In experiment [2] the test system is NCI-H1568 cells (high MCL1). Described as above. The class given is cell-based. As to conditions: NCIH1568.1; for CTGlo-ATS Mean MinResponse % 72 h NCIH1568.1: -100% = cidal, 0% = static, 100% = uninhibited growth; for GI50: geometric mean. In short, it runs like this: as §1
Experiment [3] concerns Ad2 variant pre-mRNAs spliced in HeLa S3 nuclear extracts. Briefly: In vitro splicing assay (IVS), RT-qPCR of spliced product. The format is biochemical. Particulars: for IC50: geometric mean; for Ratio Ad2.1/2.2: ratio of IVS IC50 Ad2.1 to Ad2.2. In short, it runs like this: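 Read-out is one-step TaqMan RT-qPCR of spliced Ad2 mRNA with Ftz as reference, normalized to DMSO and fit by non-linear regression. Reactions held HeLa S3 nuclear extract, 2 ng Ad2-derived pre-mRNA and test compound, with 15 min preincubation. Splicing was started with ATP-containing activation buffer and run 90 min at 30 °C.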
(In qPCR the cycle at which signal appears reflects the starting amount.)

[4] abbreviates: Panc 05.04, read-out: CTGlo-ATS GMean GI50 (nM) 72 h PANC0504.1, 72 h.
Where [5] appears, read: NCI-H1568, read-out: CTGlo-ATS GMean GI50 (nM) 72 h NCIH1568.1, 72 h.
Where [6] appears, read: Ad2.1 pre-mRNA substrate, read-out: qPCR-IVS-ATS GMean IC50 (nM) Ad2.1.
Setting [7] is: Ad2.2 pre-mRNA substrate, read-out: qPCR-IVS-ATS GMean IC50 (nM) Ad2.2.
The mark [8] stands for this setting: Panc 05.04, 72 h, read-out: CTGlo-ATS GMean GI50 (nM) 72 h PANC0504.1, 72 h.
[9] abbreviates: NCI-H1568, 72 h, read-out: CTGlo-ATS GMean GI50 (nM) 72 h NCIH1568.1, 72 h.

Nine compounds from US11679107B2 (Eisai R&D Management Co., Ltd., priority 2018, dated 2023) can be followed below.

Like-named read-outs stand apart in the source and are kept apart here. Bounds are passed on as bounds.

Usually IC50 stands for the midpoint of a concentration-inhibition curve. As usually defined, the GI50 is the concentration that inhibits growth by half.

For `C/C(=C\c1ccc(C)c(S(=O)(=O)N2CCCC2)c1)[C@H]1OC(=O)C[C@H](O)CC[C@H](C)[C@@H](OC(=O)N2CCN(C)CC2)/C=C/[C@@H]1C` [Compound 203, [(2S,3S,4E,6R,7S,10R)-10-hydroxy-3,7-dimethyl-2-[(E)-1-(4-methyl-3-pyrrolidin-1-ylsulfonylphenyl)prop-1-en-2-yl]-12-oxo-1-oxacyclododec-4-en-6-yl] 4-methylpiperazine-1-carboxylate], the IC50 at SF3b complexes was 10.1 nM; in experiment [3] (setting [6]), 14400 nM; in experiment [3] (setting [7]), 69.7 nM. Besides, the “CTGlo-ATS Mean MinResponse % 72 h PANC0504.1” value in experiment [1] (72 h) is reported as −94.627%. For the same compound, the GI50 in experiment [1] (setting [4]) was found to be 45 nM; in experiment [2] (setting [5]) it was 47.3 nM. Besides, the “CTGlo-ATS Mean MinResponse % 72 h NCIH1568.1” value in experiment [2] (72 h) was −36.664%. Besides, the “Ratio Ad2.1/2.2” value in experiment [3] turned out to be 207.149.
For the compound `C/C(=C\c1cncc(S(=O)(=O)N2CCCC2)c1)[C@H]1OC(=O)C[C@H](O)CC[C@H](C)[C@@H](OC(=O)N2CCN(C)CC2)/C=C/[C@@H]1C` [Compound 205, [(2S,3S,4E,6R,7S,10R)-10-hydroxy-3,7-dimethyl-12-oxo-2-[(E)-1-(5-pyrrolidin-1-ylsulfonylpyridin-3-yl)prop-1-en-2-yl]-1-oxacyclododec-4-en-6-yl] 4-methylpiperazine-1-carboxylate], the IC50 on SF3b complexes is 16.2 nM; in experiment [3] (setting [6]) it was greater than 25000 nM; in experiment [3] (setting [7]) it was 108 nM. Further, the “CTGlo-ATS Mean MinResponse % 72 h PANC0504.1” value in experiment [1] (72 h) is −91.576%. Moreover, the GI50 was 70.8 nM in experiment [1] (setting [4]) and 85.9 nM in experiment [2] (setting [5]). In experiment [2] (72 h), the “CTGlo-ATS Mean MinResponse % 72 h NCIH1568.1” value is −28.455%. Also, in experiment [3], the “Ratio Ad2.1/2.2” value was 232.132.
Take `C/C(=C\c1cccc(S(=O)(=O)N2CC(F)(F)C2)c1)[C@H]1OC(=O)C[C@H](O)CC[C@H](C)[C@@H](OC(=O)N2CCN(C)CC2)/C=C/[C@@H]1C` [Compound 206, [(2S,3S,4E,6R,7S,10R)-2-[(E)-1-[3-(3,3-difluoroazetidin-1-yl)sulfonylphenyl]prop-1-en-2-yl]-10-hydroxy-3,7-dimethyl-12-oxo-1-oxacyclododec-4-en-6-yl] 4-methylpiperazine-1-carboxylate]: the figures for the IC50 (at SF3b complexes; in experiment [3] (setting [6]); in experiment [3] (setting [7])) were 1.81 nM, greater than 25000 nM and 113 nM, respectively. The “CTGlo-ATS Mean MinResponse % 72 h PANC0504.1” value in experiment [1] (72 h) is reported as −83.659%. Besides, the GI50 in experiment [1] (setting [4]) amounted to 62.3 nM; in experiment [2] (setting [5]) it was 72.2 nM. In addition, in experiment [2] (72 h), the “CTGlo-ATS Mean MinResponse % 72 h NCIH1568.1” value was −57.585%. For the same compound, the “Ratio Ad2.1/2.2” value in experiment [3] stood at 221.630.
Regarding `C/C(=C\c1ccc(C)c(N2CCCC2=O)c1)[C@H]1OC(=O)C[C@H](O)CC[C@H](C)[C@@H](OC(=O)N2CCN(C)CC2)/C=C/[C@@H]1C` [Compound 207, [(2S,3S,4E,6R,7S,10R)-10-hydroxy-3,7-dimethyl-2-[(E)-1-[4-methyl-3-(2-oxopyrrolidin-1-yl)phenyl]prop-1-en-2-yl]-12-oxo-1-oxacyclododec-4-en-6-yl] 4-methylpiperazine-1-carboxylate], the IC50 stood at 3.46 nM on SF3b complexes, 22.5 nM in experiment [3] (setting [6]) and 15.5 nM in experiment [3] (setting [7]). Also, in experiment [1] (72 h), the “CTGlo-ATS Mean MinResponse % 72 h PANC0504.1” value is reported as −92.266%. In addition, the GI50 in experiment [1] (setting [4]) is 15.1 nM; in experiment [2] (setting [5]), 16.9 nM. Also, in experiment [2] (72 h), the “CTGlo-ATS Mean MinResponse % 72 h NCIH1568.1” value was −63.380%. The “Ratio Ad2.1/2.2” value in experiment [3] amounted to 1.451.
`C/C(=C\c1cccc(S(=O)(=O)NC(C)(C)C)c1)[C@H]1OC(=O)C[C@H](O)CC[C@H](C)[C@@H](OC(=O)N2CCN(C)CC2)/C=C/[C@@H]1C` [Compound 208, [(2S,3S,4E,6R,7S,10R)-2-[(E)-1-[3-(tert-butylsulfamoyl)phenyl]prop-1-en-2-yl]-10-hydroxy-3,7-dimethyl-12-oxo-1-oxacyclododec-4-en-6-yl] 4-methylpiperazine-1-carboxylate]: the figures for the IC50 (on SF3b complexes; in experiment [3] (setting [6]); in experiment [3] (setting [7])) were 1.77 nM, 1380 nM and 25.1 nM, respectively. Besides, the “CTGlo-ATS Mean MinResponse % 72 h PANC0504.1” value in experiment [1] (72 h) was −94.342%. The GI50 in experiment [1] (setting [4]) came to 9.27 nM; in experiment [2] (setting [5]), 11.6 nM. Moreover, in experiment [2] (72 h), the “CTGlo-ATS Mean MinResponse % 72 h NCIH1568.1” value is reported as −47.371%. Moreover, the “Ratio Ad2.1/2.2” value in experiment [3] stood at 54.813.
As to `C/C(=C\c1cccc(S(=O)(=O)N2CCN(C)CC2)c1)[C@H]1OC(=O)C[C@H](O)CC[C@H](C)[C@@H](OC(=O)N2CCN(C)CC2)/C=C/[C@@H]1C` [Compound 211, [(2S,3S,4E,6R,7S,10R)-10-hydroxy-3,7-dimethyl-2-[(E)-1-[3-(4-methylpiperazin-1-yl)sulfonylphenyl]prop-1-en-2-yl]-12-oxo-1-oxacyclododec-4-en-6-yl] 4-methylpiperazine-1-carboxylate], the IC50 is 11.9 nM at SF3b complexes, 651 nM in experiment [3] (setting [6]) and 83.4 nM in experiment [3] (setting [7]). The “CTGlo-ATS Mean MinResponse % 72 h PANC0504.1” value in experiment [1] (72 h) is on record as −91.820%. In addition, the figures for the GI50 in experiment [1] (setting [4]) and in experiment [2] (setting [5]) were 47.6 nM and 60.6 nM, respectively. Further, the “CTGlo-ATS Mean MinResponse % 72 h NCIH1568.1” value in experiment [2] (72 h) is −52.358%. Moreover, the “Ratio Ad2.1/2.2” value in experiment [3] was 7.806.
Regarding `C/C(=C\c1cccc(S(=O)(=O)N2CCCCC2)c1)[C@H]1OC(=O)C[C@H](O)CC[C@H](C)[C@@H](OC(=O)N2CCN(C)CC2)/C=C/[C@@H]1C` [Compound 213, [(2S,3S,4E,6R,7S,10R)-10-hydroxy-3,7-dimethyl-12-oxo-2-[(E)-1-(3-piperidin-1-ylsulfonylphenyl)prop-1-en-2-yl]-1-oxacyclododec-4-en-6-yl] 4-methylpiperazine-1-carboxylate], the IC50 on SF3b complexes amounted to 3.23 nM; in experiment [3] (setting [6]), 9.84 nM; in experiment [3] (setting [7]), 7.96 nM. Moreover, the “CTGlo-ATS Mean MinResponse % 72 h PANC0504.1” value in experiment [1] (72 h) was −85.603%. Further, the figures for the GI50 in experiment [1] (setting [4]) and in experiment [2] (setting [5]) were 3.2 nM and 6.03 nM, respectively. For the same compound, in experiment [2] (72 h), the “CTGlo-ATS Mean MinResponse % 72 h NCIH1568.1” value was −64.116%. Besides, the “Ratio Ad2.1/2.2” value in experiment [3] came to 1.236.
Consider `C/C(=C\c1cccc(S(=O)(=O)N2CCCC2)c1)[C@H]1OC(=O)C[C@H](O)CC[C@H](C)[C@@H](OC(=O)N2CCN(C)CC2)/C=C/[C@@H]1C` [Compound 214, [(2S,3S,4E,6R,7S,10R)-10-hydroxy-3,7-dimethyl-12-oxo-2-[(E)-1-(3-pyrrolidin-1-ylsulfonylphenyl)prop-1-en-2-yl]-1-oxacyclododec-4-en-6-yl] 4-methylpiperazine-1-carboxylate], for which the values for the IC50 (on SF3b complexes; in experiment [3] (setting [6]); in experiment [3] (setting [7])) were 2.3 nM, 3920 nM and 19.2 nM, respectively. Further, the “CTGlo-ATS Mean MinResponse % 72 h PANC0504.1” value in experiment [1] (72 h) is on record as −91.986%. Besides, the results for the GI50 in experiment [1] (setting [8]) and in experiment [2] (setting [9]) were 3.29 nM and 6.37 nM, respectively. Besides, in experiment [2] (72 h), the “CTGlo-ATS Mean MinResponse % 72 h NCIH1568.1” value is −48.793%. In experiment [3], the “Ratio Ad2.1/2.2” value was determined as 204.217.
On to `C/C(=C\c1cccc(S(=O)(=O)C2CC2)c1)[C@H]1OC(=O)C[C@H](O)CC[C@H](C)[C@@H](OC(=O)N2CCN(C)CC2)/C=C/[C@@H]1C` [Compound 215, [(2S,3S,4E,6R,7S,10R)-2-[(E)-1-(3-cyclopropylsulfonylphenyl)prop-1-en-2-yl]-10-hydroxy-3,7-dimethyl-12-oxo-1-oxacyclododec-4-en-6-yl] 4-methylpiperazine-1-carboxylate], for which the figures for the IC50 (on SF3b complexes; in experiment [3] (setting [6]); in experiment [3] (setting [7])) were 6.83 nM, 20500 nM and 50.7 nM, respectively. Further, the “CTGlo-ATS Mean MinResponse % 72 h PANC0504.1” value in experiment [1] (72 h) is on record as −81.853%. Moreover, the GI50 in experiment [1] (setting [8]) was 20 nM; in experiment [2] (setting [9]), 25 nM. In addition, in experiment [2] (72 h), the “CTGlo-ATS Mean MinResponse % 72 h NCIH1568.1” value is on record as −42.412%. Besides, in experiment [3], the “Ratio Ad2.1/2.2” value is reported as 403.817.
